Here are results for 5 molecules from patent publication EP0148283A1, “Novel penicillanic acid derivatives” (F. HOFFMANN-LA ROCHE & CO. Aktiengesellschaft, priority 1983, dated 1985).

What all share (assay): In vitro antibacterial activity, MIC by broth dilution in 96-well trays
Holding throughout (assay type): cell-based
On the technique in general: In broth dilution the organism is exposed to a series of concentrations in liquid medium.

The test system of one assay is P.aeruginosa. The settings on record: Pseudomonas aeruginosa. As for the experimental part:
(§1) The in vitro antibacterial activity of the following compounds:
(§2) The diluted agents are dispensed in 100 µl amounts into the wells of a 96-well tray and used immediately or frozen at -10 to -70°C until needed. Using an automated inoculator, 1.5 µl of a 10^-2 dilution of an overnight culture is added to each well of the tray. The tops of the trays are then sealed using transparent tape and incubated overnight at 37°C. The trays are examined with the aid of a viewer. The lowest concentration at which no growth is observed is considered to be the minimum inhibitory concentration (MIC). [formula] [formula] [formula] [formula] [formula] [formula] [formula] [formula] [formula] [formula] [formula]

For another assay, the system named is S. aureus. The settings on record: Staphylococcus aureus. As for the experimental part: as §1, §2
The next assay relates to S. faecalis. The following applies: Enterococcus faecalis; S. faecalis C1. As for the experimental part:
as §1, §2

The next assay deals with S. pneumoniae. The following applies: Streptococcus pneumoniae. As for the experimental part:
as §1, §2

In the next assay the test system is S. pyogenes. The settings on record: Streptococcus pyogenes. As for the experimental part: as §1, §2

Where a name gives a salt, the structure may show the parent alone.

Usually MIC stands for the lowest concentration found to suppress growth. The low end stands for inhibition by little substance, the high end for a need for much substance. Turning to `CC1(C)S[C@@H]2[C@H](N=CN3CCC(CC4=NCCCN4)CC3)C(=O)N2[C@H]1C(=O)O` [Compound U, [2S-(2alpha,5alpha,6beta)]-6-[[[4-[(1,4,5,6-tetrahydro-2-pyrimidinyl)methyl]-1-piperidinyl]-methylene]amino]-3,3-dimethyl-7-oxo-4-thia-1-azabicyclo[3.2.0]heptane-2-carboxylic acid hydrochloride], the MIC in the assay with P.aeruginosa (P.aeruginosa strain 503-56) was 64 µg/mL; against P.aeruginosa (P.aeruginosa strain 503-820), more than 128 µg/mL; against P.aeruginosa (P.aeruginosa strain 5700), 0.5 µg/mL; in the assay on P.aeruginosa (P.aeruginosa strain 5712), more than 128 µg/mL; against P.aeruginosa (P.aeruginosa strain 6148B), 128 µg/mL; in the assay with P.aeruginosa (P.aeruginosa strain 8710), more than 128 µg/mL. Further, the MIC in the assay with P.aeruginosa (P.aeruginosa strain 8780) is more than 128 µg/mL; in the assay with P.aeruginosa (P.aeruginosa strain B), 9.5 µg/mL; in the assay with P.aeruginosa (P.aeruginosa strain POW 151) it was more than 128 µg/mL; against P.aeruginosa (P.aeruginosa strain Stone 130) it was more than 128 µg/mL; with S. aureus (S. aureus strain 1059B) it was more than 128 µg/mL; against S. aureus (S. aureus strain Giorgio) it was 8 µg/mL. Further, the minimum inhibitory concentration (MIC) came to 8 µg/mL against S. aureus (S. aureus strain Smith); 128 µg/mL in the assay with S. faecalis; 2 µg/mL against S. pneumoniae (S. pneumoniae strain 6301); 4 µg/mL with S. pneumoniae (S. pneumoniae strain 6302); 4 µg/mL against S. pneumoniae (S. pneumoniae strain SC); 4 µg/mL against S. pyogenes (S. pyogenes strain 4). In the assay with S. pyogenes (S. pyogenes strain 503-782), this molecule had an MIC of more than 128 µg/mL.

For the molecule `CC1(C)S[C@@H]2[C@H](N=CN3CCCC(c4ncc[nH]4)C3)C(=O)N2[C@H]1C(=O)O` (stereo partly drawn) [P, [2S-(2alpha,5alpha,6beta)]-6-[[[3-(1H-imidazol-2-yl)-1-piperidinyl]methylene]amino]-3,3-dimethyl-7-oxo-4-thia-1-azabicyclo[3.2.0]heptane-2-car-boxylic acid hydrochloride], the minimum inhibitory concentration (MIC) in the assay with P.aeruginosa (P.aeruginosa strain 503-56) is more than 128 µg/mL; against P.aeruginosa (P.aeruginosa strain 503-820), more than 128 µg/mL; in the assay on P.aeruginosa (P.aeruginosa strain 5700), 8 µg/mL; in the assay on P.aeruginosa (P.aeruginosa strain 5712), more than 128 µg/mL; in the assay with P.aeruginosa (P.aeruginosa strain 6148B), more than 128 µg/mL; against P.aeruginosa (P.aeruginosa strain 8710) it was more than 128 µg/mL. For the same molecule, the MIC is more than 128 µg/mL against P.aeruginosa (P.aeruginosa strain 8780); 8 µg/mL against P.aeruginosa (P.aeruginosa strain B); more than 128 µg/mL with P.aeruginosa (P.aeruginosa strain POW 151); more than 128 µg/mL with P.aeruginosa (P.aeruginosa strain Stone 130); 64 µg/mL against S. aureus (S. aureus strain 1059B); 4 µg/mL in the assay with S. aureus (S. aureus strain Giorgio). In addition, the MIC against S. aureus (S. aureus strain Smith) came out at 2 µg/mL; with S. faecalis it was 64 µg/mL; in the assay with S. pneumoniae (S. pneumoniae strain 6301), 1 µg/mL; in the assay on S. pneumoniae (S. pneumoniae strain 6302), 1 µg/mL; in the assay with S. pneumoniae (S. pneumoniae strain SC) it was 1 µg/mL; against S. pyogenes (S. pyogenes strain 4), 0.5 µg/mL. This molecule had a minimal inhibitory concentration (MIC) with S. pyogenes (S. pyogenes strain 503-782) of 64 µg/mL.

As for `CC1(C)S[C@@H]2[C@H](N=CN3CCC(Cc4ncc[nH]4)CC3)C(=O)N2[C@H]1C(=O)O` [Q, [2S-(2alpha,5alpha,6beta)]-6-[[[4-(1H-imidazol-2-yl-methyl)-1-piperidinyl]methylene]amino]-3,3-dimethyl-7-oxo-4-thia-1-azabicyclo[3.2.0]heptane-2-carboxylic acid hydrochloride], the minimal inhibitory concentration (MIC) with P.aeruginosa (P.aeruginosa strain 503-56) was 64 µg/mL; with P.aeruginosa (P.aeruginosa strain 503-820) it was 128 µg/mL; against P.aeruginosa (P.aeruginosa strain 5700) it was 0.125 µg/mL; with P.aeruginosa (P.aeruginosa strain 5712), more than 128 µg/mL; in the assay with P.aeruginosa (P.aeruginosa strain 6148B) it was 128 µg/mL; in the assay with P.aeruginosa (P.aeruginosa strain 8710), 128 µg/mL. In addition, the MIC with P.aeruginosa (P.aeruginosa strain 8780) was more than 128 µg/mL; against P.aeruginosa (P.aeruginosa strain B), 0.25 µg/mL; in the assay on P.aeruginosa (P.aeruginosa strain POW 151) it was more than 128 µg/mL; in the assay with P.aeruginosa (P.aeruginosa strain Stone 130), more than 128 µg/mL; with S. aureus (S. aureus strain 1059B), 128 µg/mL; against S. aureus (S. aureus strain Giorgio) it was 8 µg/mL. Further, the minimal inhibitory concentration (MIC) turned out to be 8 µg/mL against S. aureus (S. aureus strain Smith); 128 µg/mL with S. faecalis; 1 µg/mL in the assay with S. pneumoniae (S. pneumoniae strain 6301); 2 µg/mL against S. pneumoniae (S. pneumoniae strain 6302); 2 µg/mL against S. pneumoniae (S. pneumoniae strain SC); 1 µg/mL in the assay on S. pyogenes (S. pyogenes strain 4). This molecule came in with an MIC in the assay on S. pyogenes (S. pyogenes strain 503-782) of 128 µg/mL.

For the molecule `CC1(C)S[C@@H]2[C@H](N=CN3CCC(CCCn4ccnc4CO)CC3)C(=O)N2[C@H]1C(=O)O` [R, [2S-(2alpha,5alpha,6beta)]-6-[[[4-[3-[2-(hydroxy-methyl)-1H-imidazol-1-yl]propyl-1-piperidinyl]-methylene]amino]-3,3-dimethyl-7-oxo-4-thia-1-azabicyclo[3.2.0]heptane-2-carboxylic acid hydrochloride 1.1 molar hydrate], the minimal inhibitory concentration (MIC) against P.aeruginosa (P.aeruginosa strain 503-56) is more than 128 µg/mL; with P.aeruginosa (P.aeruginosa strain 503-820), 128 µg/mL; with P.aeruginosa (P.aeruginosa strain 5700) it was more than 128 µg/mL; against P.aeruginosa (P.aeruginosa strain 5712) it was more than 128 µg/mL; against P.aeruginosa (P.aeruginosa strain 6148B) it was 128 µg/mL; against P.aeruginosa (P.aeruginosa strain 8710), more than 128 µg/mL. Moreover, the minimal inhibitory concentration (MIC) with P.aeruginosa (P.aeruginosa strain 8780) was more than 128 µg/mL; against P.aeruginosa (P.aeruginosa strain B), 128 µg/mL; against P.aeruginosa (P.aeruginosa strain POW 151), more than 128 µg/mL; in the assay on P.aeruginosa (P.aeruginosa strain Stone 130), more than 128 µg/mL; in the assay with S. aureus (S. aureus strain 1059B), 64 µg/mL; in the assay with S. aureus (S. aureus strain Giorgio), 8 µg/mL. The MIC in the assay on S. aureus (S. aureus strain Smith) amounted to 8 µg/mL; against S. faecalis, 128 µg/mL; with S. pneumoniae (S. pneumoniae strain 6301), 1 µg/mL; in the assay with S. pneumoniae (S. pneumoniae strain 6302), 1 µg/mL; in the assay on S. pneumoniae (S. pneumoniae strain SC), 0.5 µg/mL; against S. pyogenes (S. pyogenes strain 4), 0.5 µg/mL. In the assay with S. pyogenes (S. pyogenes strain 503-782), the MIC worked out at 128 µg/mL.

`CN(C)C=Nc1nccn1CCCC1CCN(C=N[C@@H]2C(=O)N3[C@@H]2SC(C)(C)[C@@H]3C(=O)O)CC1` [S, [2S-(2alpha,5alpha,6beta)]-6-[[[4-[3-[2-[[(dimethylamino)methylene]amino]-1H-imidazol-1-yl]propyl]-1-piperidinyl]methylene]amino]-3,3-dimethyl-7-oxo-4-thia-1-azabicyclo[3.2.0]heptane-2-carboxylic acid 1.7 molar hydrochloride 2.6 molar hydrate]: the MIC in the assay on P.aeruginosa (P.aeruginosa strain 503-56), against P.aeruginosa (P.aeruginosa strain 503-820), in the assay with P.aeruginosa (P.aeruginosa strain 5700), against P.aeruginosa (P.aeruginosa strain 5712), in the assay with P.aeruginosa (P.aeruginosa strain 6148B) and in the assay with P.aeruginosa (P.aeruginosa strain 8710) was more than 128 µg/mL each time. In addition, the MIC against P.aeruginosa (P.aeruginosa strain 8780) is more than 128 µg/mL; with P.aeruginosa (P.aeruginosa strain B), more than 128 µg/mL; against P.aeruginosa (P.aeruginosa strain POW 151) it was more than 128 µg/mL; against P.aeruginosa (P.aeruginosa strain Stone 130) it was more than 128 µg/mL; against S. aureus (S. aureus strain 1059B), 64 µg/mL; against S. aureus (S. aureus strain Giorgio) it was 8 µg/mL. Further, the MIC against S. aureus (S. aureus strain Smith) is 8 µg/mL; in the assay with S. faecalis, 128 µg/mL; in the assay on S. pneumoniae (S. pneumoniae strain 6301) it was 2 µg/mL; with S. pneumoniae (S. pneumoniae strain 6302), 1 µg/mL; against S. pneumoniae (S. pneumoniae strain SC) it was 0.5 µg/mL; in the assay with S. pyogenes (S. pyogenes strain 4) it was 0.25 µg/mL. Besides, in the assay with S. pyogenes (S. pyogenes strain 503-782), the lowest concentration to inhibit growth (MIC) was 128 µg/mL.
